Measured values: US10703735B2, “4-phenyl-coumarin derivatives, processes for their preparation and uses thereof for the treatment of cancer” (Lead Discovery Center GmbH, priority 2018, dated 2020)

Legend:
[1] = test system: mitochondrial transcription (7S RNA) in HeLa cells; test: Quantitative real time-PCR assay of inhibition of mitochondrial transcription (7S RNA) in HeLa cells; format: cell-based; conditions: Homo sapiens, 4 h incubation, Example 5, read-out: cellular qPCR assay IMT (IC-50)
Description: Quantitative real-time PCR (qRT-PCR), based on the TaqMan™ (Thermo Fisher Scientific, Waltham Mass.) technology, was carried out essentially as described in (Heid et al. 1996). HeLa cells were plated one day before compound treatment in RPMI medium supplemented with 10% Fetal Calf Serum and 2 mM L-glutamine. Cells were incubated with dilution series of compounds or vehicle (DMSO) for 4 h, prior to harvest and extraction of the RNA using the RNeasy Mini Kit (Qiagen, Hilden D), according to the manufacturer's instructions. RNA concentrations were measured spectroscopically, using a NanoDrop-2000 (Thermo Fisher Scientific, Waltham Mass.) and normalized prior to cDNA synthesis, using a ‘High-Capacity cDNA Reverse Transcription Kit’ (Thermo Fisher Scientific, Waltham Mass.). qRT-PCR was carried out using the ‘TaqMan Fast Advance Master Mix’ (Thermo Fisher Scientific, Waltham Mass.) on a 7500 Fast Real-Time PCR machine (Applied Biosystems, Foster City Calif.)
For these measurements, three genes were used to compare the effect of the scrutinized compounds in relation to their concentration. The POLRMT-gene was used to detect potential influences on nuclear transcription. Mitochondrial transcription in vivo was monitored by measurements 7S RNA. The TBP (TATA-box binding protein) gene was employed as the control (housekeeping gene) during qRT-PCR. The short-lived mitochondrial 7S RNA, which is not post-transcriptionally stabilized, allowed us to monitor rapid changes in mitochondrial transcription activity following compound addition. Biological triplicates were analyzed using the comparative CT Method (ΔΔCt) method (Bubner et al. 2004) and reported as Rq % values (Rq=Relative quantification=2-ΔΔCt).

[2] = biological target: mitochondrial RNA-polymerase (POLRMT) (Mus musculus, UniProt Q8BKF1); test: Homogeneous TR-FRET assay for mitochondrial transcription activity; format: biochemical; conditions: homogeneous TR-FRET assay according to Example 4; read-out: mitochondrial transcription activity (IC-50)
Sequence of mitochondrial RNA-polymerase (POLRMT) (Q8BKF1 42-1207): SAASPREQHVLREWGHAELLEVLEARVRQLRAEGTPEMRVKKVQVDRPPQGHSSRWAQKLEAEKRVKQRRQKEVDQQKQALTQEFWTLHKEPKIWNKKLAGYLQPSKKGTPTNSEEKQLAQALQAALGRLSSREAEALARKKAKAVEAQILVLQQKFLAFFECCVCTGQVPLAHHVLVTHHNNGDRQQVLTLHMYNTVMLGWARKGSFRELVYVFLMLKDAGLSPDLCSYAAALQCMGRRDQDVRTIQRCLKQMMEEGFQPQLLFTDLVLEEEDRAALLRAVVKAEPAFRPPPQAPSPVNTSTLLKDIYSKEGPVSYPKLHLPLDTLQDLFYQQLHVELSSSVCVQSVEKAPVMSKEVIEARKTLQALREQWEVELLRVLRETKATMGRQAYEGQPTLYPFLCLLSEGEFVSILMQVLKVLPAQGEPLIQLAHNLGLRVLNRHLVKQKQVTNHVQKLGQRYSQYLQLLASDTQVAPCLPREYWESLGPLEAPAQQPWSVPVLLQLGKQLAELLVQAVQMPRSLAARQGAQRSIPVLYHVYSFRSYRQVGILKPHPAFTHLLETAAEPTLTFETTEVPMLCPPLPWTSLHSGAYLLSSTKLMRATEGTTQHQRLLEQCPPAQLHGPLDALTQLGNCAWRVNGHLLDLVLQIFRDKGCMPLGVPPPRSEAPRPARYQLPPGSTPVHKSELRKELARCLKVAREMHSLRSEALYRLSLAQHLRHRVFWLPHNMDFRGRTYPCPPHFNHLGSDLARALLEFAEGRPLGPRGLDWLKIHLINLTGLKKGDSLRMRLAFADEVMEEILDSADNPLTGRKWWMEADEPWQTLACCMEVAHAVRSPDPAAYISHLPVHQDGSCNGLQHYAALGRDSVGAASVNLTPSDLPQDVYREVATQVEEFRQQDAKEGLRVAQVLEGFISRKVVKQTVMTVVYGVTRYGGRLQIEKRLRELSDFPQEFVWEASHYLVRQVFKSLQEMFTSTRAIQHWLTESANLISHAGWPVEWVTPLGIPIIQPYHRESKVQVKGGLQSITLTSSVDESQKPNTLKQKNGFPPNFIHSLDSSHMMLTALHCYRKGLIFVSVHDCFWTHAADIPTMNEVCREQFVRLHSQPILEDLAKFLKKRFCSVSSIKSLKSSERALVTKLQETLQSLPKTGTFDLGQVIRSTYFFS
How it was run: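 Mouse POLRMT with TFAM and TFB2M transcribes linearized pUC-LSP template after 10 min compound preincubation (10 μM final or dilution series), started with 500 μM each nucleotide, 2 h at RT. EDTA/high-salt stop; RNA product detected by hybridized Eu/ATTO647N probe pair, TR-FRET read at 665 nm (340 nm excitation).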

Row | IC50 [1] [nM] | IC50 [2] [nM] | Compound
1 | 10 to 50 | 100 to 1000 | C[C@@H](Oc1ccc2c(-c3ccccc3)cc(=O)oc2c1)C(=O)N(C)C [Compound 34, (2R)-N,N-dimethyl-2-(2-oxo-4-phenyl-chromen-7-yl)oxy-propanamide]
2 | 50 to 500 | 100 to 1000 | CCOC(=O)C(C)Oc1ccc2c(-c3ccccc3)cc(=O)oc2c1 (centres unmarked) [Compound 52, ethyl 2-(2-oxo-4-phenyl-chromen-7-yl)oxypropanoate]
3 | < 10 | 20 to 100 | CC(C)OC(=O)C(C)Oc1ccc2c(-c3ccccc3)cc(=O)oc2c1 (centres unmarked) [Compound 53, isopropyl 2-(2-oxo-4-phenyl-chromen-7-yl)oxypropanoate]
4 | 500 to 10000 | 1000 to 10000 | CCOC(=O)C(C)Oc1ccc2c(-c3ccc(OC)cc3)cc(=O)oc2c1 (centres unmarked) [Compound 65, ethyl 2-[4-(4-methoxyphenyl)-2-oxo-chromen-7-yl]oxypropanoate]
